Common to all, as to assay type: in vivo
One assay concerns dog IgE. Description: Intravenous administration test using rats: IgG antibody against dog IgE (ELISA). The following applies: i.v. As for the experimental part:
The dog IgE protein (Bethyl Laboratories, Inc.; P115), the mouse IgE protein (BD Biosciences, San Jose, Calif., USA), and the human IgE protein (Athens Research And Technology, Inc.; 16-16-090705-ML) were each prepared at 1 μg/mL, 500 ng/mL, 250 ng/mL, 125 ng/mL, 62.5 ng/mL, 31.2 ng/mL, 15.6 ng/mL, 7.8 ng/mL, 3.9 ng/mL, 1.95 ng/mL, and 0.97 ng/mL in an immobilization buffer (0.05 M carbonate buffer, pH 9.6), then added at a concentration of 100 μL/well to an ELISA plate, and left overnight at 4° C. The immobilization plate was washed once with PBS-T (0.05%). A blocking solution (4× Block Ace, Snow Brand Milk Products Co., Ltd.; UK-B80) was added thereto at a concentration of 200 μL/well. The plate was blocked by incubation at 37° C. for 1.5 hours. The serum was diluted 2000-fold with a diluent (PBS-T:Block Ace=9:1) and used. The serum of an unimmunized rat was similarly diluted and used as a negative control. […] Then, the measurement was performed using a plate reader (Bio-Rad Laboratories, Inc.; model 680) (dual: measurement: 450 nm, control: 570 nm).
This peptide was used in the immunization of rats without the use of an adjuvant, and antibody response to dog IgE was evaluated. […]
Blood was collected every 2 weeks from the administer start date up to 8 weeks after the third immunization. Serum was collected, and an IgG antibody against dog IgE was evaluated by ELISA (FIG. 13). […]

The test system of a further assay is cat IgE. Description: Reactivity of serum of peptide-immunized rabbit with cat IgE recombinant CH3 (ELISA). The following applies: 500 μg peptide + complete adjuvant s.c. How it is done:
2 mL of the 250 μg/mL peptide (a total of 500 μg) used in Example 2 was mixed with an equal amount of a complete adjuvant (a total of 4 mL). Each rabbit was immunized with this mixture by the subcutaneous administration (amount of the peptide: 500 μg) at day 0 and weeks 2, 4, 6, and 8. Blood was collected 5 weeks after the week-8 administration (week 13 counted from day 0). Booster immunization was performed at week 14 counted from day 0, and blood was further collected 2 weeks thereafter (week 16 counted from day 0). Antibody titers in the collected blood were measured by ELISA. The serum of a rabbit that received no peptide was used as a control.
ELISA was performed by the following method: each […] recombinant CH3 solution of dog IgE, human IgE, mouse IgE, dog IgG, and cat IgE was immobilized at a concentration of 100 μL/well (100 ng/well) to a plate. The serum collected from the immunized rabbit was used (×200 to ×102400) as a primary antibody. An enzyme-labeled anti-rabbit IgG antibody (Zymed Laboratories Inc.) was used as a secondary antibody.

For another assay, the system named is Der f 2-specific IgE. Description: Der f 2-specific IgE in serum of vaccinated, Der f 2-sensitized dogs. The following applies: dog. How it is done: The peptide used was MOUSE CH3-4-17-11 (mouse CH3 region amino acid sequence) (SEQ ID NO: 27). 2 mL (500 μg) of a solution of the peptide (concentration: 250 μg/mL) and 2 mL of a complete adjuvant (DIFCO ADJUVANT COMPLETE FREUND, Becton, Dickinson and Company Japan) were dispensed to microtubes. Liquids (4 mL per animal) emulsified by shaking for 15 minutes in a high-speed shaker were used as IgE peptide vaccines.
The animals used were 1 male and 7 females of 5- to 7-month-old beagles and were divided into an administration group (n=4; 08-33, 08-42, 08-43, and 08-44) and a non-administration group (n=4; 08-45, 08-46, 08-47, and 08-48).
The peptide was administered at days 0 (test start date), 14, and 28 in the first course and further at days 106 and 117 in the second course. The test substance was subcutaneously administered to the necks of the 4 animals in the administration group. The non-administration group was untreated.
Four weeks after the completion of the peptide administration of the first course (days 56 and 70 into the test), all of the animals were artificially sensitized. A mixed liquid (4.0 mL per animal) of 300 μg of Der f 2 (Lot No. 3, 1465 μg/mL, prepared by a drug research team) and 50 mg of an alum adjuvant (SIGMA® Aluminium hydrate IgE1, 13 mg/mL) was used as a sensitizing solution and administered intraperitoneally for the first shot and subcutaneously to the necks for the second shot.
Four weeks after the completion of the peptide administration of the second course (day 145 into the test), the artificial sensitization was boosted. A 1-mL solution prepared from Der f 2 (Lot No. 3: 0.205 mL of 1465 μg/mL: 300 μg) with saline was subcutaneously administered to the necks of all of the animals.
At days 0, 14, 28, 42, 56, 70, 77, 84, 98, 106, 117, 131, 145, and 152 (4 time points (0, 14, 28, and 42) were excluded for the non-administration group), blood was collected from the jugular vein of each individual using a syringe. After separation of serum, the serum was used to measure peptide-specific IgG concentrations and IgE-specific IgG concentrations in the serum.
Serum obtained at days 70, 77, 106, 117, 131, 145, and 152 were used in the measurement of Der f 2-specific IgE concentrations in the serum, which was consigned to AAC Laboratories Inc.

Turning to “KKTSVSASQWYTKHHNNATT (listed as Mus musculus) [M4-7-11]”, the “anti-dog IgE IgG antibody titers in rat serum” value in the assay with dog IgE (all dose groups, final day (8 weeks after the third vaccination day)) is on record as 3000 times. For the same sequence, the “level of the IgG antibody against dog IgE” value with dog IgE (rat, 1 mg, 500 μg, 100 μg or 50 μg per animal three times, no adjuvant, all groups) is given as “a rise in the level of the IgG antibody against dog IgE was confirmed”.

“QEKKTSVSASQWYTKHHNNATTSIT (listed as Mus musculus) [MOUSE CH3-4-17-11]”: in the assay on cat IgE, the “response of immobilized cat IgE to peptide-administered rabbit serum” value is listed as “responded”. Moreover, the “Der f 2-specific IgE in serum, administration group versus non-administration group” value in the assay with Der f 2-specific IgE (all of the time points) is on record as “no significant difference”. In addition, the results for the “Der f 2-specific IgE concentrations in serum, administration group” value in the assay with Der f 2-specific IgE (day 70 (2 weeks after the first sensitization)), in the assay on Der f 2-specific IgE (day 106 (peak)) and with Der f 2-specific IgE (day 152 (7 days after the boosting)) were 1528.8 ± 1823.6 ng/mL, 3091.8 ± 1542.6 ng/mL and 3972.5 ± 1216.5 ng/mL, respectively. The “average of Der f 2-specific IgE concentrations in the serum of the administration group” value in the assay on Der f 2-specific IgE (day 77, 3 animals, excluding 08-43) is listed as 1352.3 ng/mL. Further, the “production of IgE after subsequent sensitization” value with Der f 2-specific IgE (summary of FIG. 6) was “inhibited the production of IgE”.

Values taken from patent US9657071B2, “IgE peptide vaccine” (NIPPON ZENYAKU KOGYO CO., LTD., priority 2012, dated 2017).
